Results from patent US20220323521A1, “Compositions and Uses for Engineered Therapeutic Microbes and Associated Receptors” (The Brigham and Women`s Hospital, Inc., priority 2019, published 2022).

Assays:
human P2Y2 receptor [1] = experiment: Flow cytometry evaluation of response to ATP and UTP (pFUS1-mCherry mating pathway reporter in yeast strain BS016); type: cell-based; conditions: for Follow-up Test Results: response/sensitivity to ATP versus WT, post-sorting follow-up; for ATP Linear Range μM / ATP Max Response (±SE) / ATP Dynamic Range / ATP Linear Range: ligand eATP; for ATP Max Response (±SE) / UTP Max Response (±SE): normalized to maximum mating pathway activation by WT human P2Y2 receptor with eATP; for ATP Dynamic Range / UTP Dynamic Range: ratio of highest fluorescence versus 10% signal saturation; for UTP Max Response (±SE): unit assumed; for signaling in the absence of agonist (constitutive activity): no agonist
Method: (§1) Flow cytometry evaluation of response to ATP and UTP. Yeast strain BS016 transformed with a human P2Y2 gene in the pRS316 pTDH3 vector was grown in SC-URA liquid media overnight. The same strain transformed with a plasmid not containing a P2Y2 sequence (Vector) was used as a negative control. Cells were diluted to OD600 0.05 in 600 μL SC-URA containing ATP (0-25.6 mM; pH 7.0, Bio Basic) or UTP (0-3.2 mM; pH 7.0, Sigma-Aldrich) and incubated for 6 hours at 30° C. Cells were then treated with cycloheximide to a final concentration of 10 μg/mL. The mCherry signal of at least 10,000 cells was measured for each sample with a Miltenyi Biotec MACSQuant VYB. The mean mCherry fluorescence was determined using FlowJo. For dose-response assays, data was fitted with the “log(agonist) vs. response—Variable slope (four parameters)” model in Prism (GraphPad). After subtracting the mCherry fluorescence signal of the Vector control, fluorescence values were normalized to the wild-type P2Y2 control used in the same experiment, to allow comparisons between experiments performed on different days.
(§2) Directed evolution of human P2Y2 receptor. Error-prone PCR mutagenesis was performed using the Agilent GeneMorph II Random Mutagenesis Kit with yeast codon-optimized human P2Y2 as a template, using previously described methods (104). 150 ng of template DNA and 30 cycles achieved the desired mutation rate of ˜3 mutations per P2Y2 gene, determined by sequencing 12 randomly selected plasmids (Table 2). The random mutants were inserted into pRS316 pTDH3 using AarI-based cloning and transformed into NEB 5-alpha competent E. coli cells (New England Biolabs) generating >15,000 individual colonies. Cells were scraped off agar plates, mixed together, and plasmid DNA was extracted (QIAQuick Spin Miniprep Kit, Qiagen) to create the final plasmid library. The library was transformed into yeast strain BS016 using a high-efficiency lithium acetate-based method (105), yielding at least 10-fold the number of colonies as the total library size, so that each mutant would be screened multiple times. Transformed cells were incubated overnight, then diluted to OD600 0.05 into fresh 100 mL SC-URA liquid media containing 100 μM ATP (pH 7.0, Biobasic), and incubated for either 18 or 6 hours at 30° C. (FIG. 8). After brief sonication, 10^6-10^7 cells were gated by side and forward scatter and sorted for the highest ˜1% of mCherry signal using a BD Influx cell sorter (106). A total of 174 yeast colonies recovered from various sorting experiments were individually screened for their response to 100 μM UTP, 100 μM ATP, or with no ligand, after a 6-hour incubation. Plasmids were isolated from selected colonies by first incubating with zymolase (BioShop Canada) then extracting plasmid DNA (QIAQuick Spin Miniprep Kit, Qiagen). Plasmid DNA was amplified using NEB 5-alpha competent E. coli cells (New England Biolabs), the plasmid DNA was sequenced, and fresh BS016 yeast cells were transformed for dose-response experiments.
(§3) Maximum response values were normalized to the maximum mating pathway activation provided by the WT human P2Y2 receptor incubated with eATP. Dynamic range was the ratio of the highest fluorescence obtained in the presence of the indicated ligand versus 10% signal saturation. Linear range was the series of ligand concentrations for which a change in signal can be detected. The minimum limit of the linear range was estimated as the ligand concentration corresponding to 10% signal saturation. Data represents the mean of six colonies for eATP, three colonies for eUTP.

human P2Y2 receptor [2] = biological target: T1, human P2Y2 receptor (Homo sapiens, UniProt P41231); experiment: as above; type: cell-based; conditions: for EC50: agonist on WT human P2Y2 in Gpa1-Gαi3 pFUS1-mCherry strain
T1 construct: expressed in transfected cells; host or cells: Saccharomyces cerevisiae strain BS016 (Gpa1-Gαi3 chimera, pFUS1-mCherry reporter), plasmid pRS316 pTDH3
T1 sequence (P41231 whole entry): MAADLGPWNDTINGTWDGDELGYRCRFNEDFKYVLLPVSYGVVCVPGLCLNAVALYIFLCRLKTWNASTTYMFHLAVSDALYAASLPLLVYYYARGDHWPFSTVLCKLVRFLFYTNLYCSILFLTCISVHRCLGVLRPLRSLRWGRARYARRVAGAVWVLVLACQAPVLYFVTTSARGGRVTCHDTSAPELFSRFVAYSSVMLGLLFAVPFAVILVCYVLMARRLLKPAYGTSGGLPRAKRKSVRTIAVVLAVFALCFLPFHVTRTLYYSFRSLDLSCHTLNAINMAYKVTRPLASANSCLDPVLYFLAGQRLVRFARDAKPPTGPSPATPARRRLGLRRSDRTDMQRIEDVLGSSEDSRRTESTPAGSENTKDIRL
Method: as §1, §2, §3

[3] = ligand concentrations for which a change in signal can be detected
[4] = ligand eUTP, ligand concentrations for which a change in signal can be detected

Molecule	Follow-up Test Results (human P2Y2 receptor [1])	EC50 (human P2Y2 receptor [2]) [µM]	ATP Linear Range μM (human P2Y2 receptor [1]; [3])	ATP Max Response (±SE) (human P2Y2 receptor [1]) [%]	ATP Dynamic Range (human P2Y2 receptor [1])	UTP Linear Range (human P2Y2 receptor [1]; [4]) [µM]	UTP Max Response (±SE) (human P2Y2 receptor [1]; ligand eUTP) [%]	UTP Dynamic Range (human P2Y2 receptor [1]; ligand eUTP)	ATP Linear Range (human P2Y2 receptor [1]; [3]) [µM]	signaling in the absence of agonist (constitutive activity) (human P2Y2 receptor [1])	UTP Linear Range μM (human P2Y2 receptor [1]; [4])	response to 100 μM eATP (mCherry expression) (human P2Y2 receptor [2]; 100 μM eATP)
6R1-2: human P2Y2 receptor mutant I214T [Mutant 6R1-2]	No different than WT, not selected for											
18R2-2: human P2Y2 receptor mutant L112S A176V [Mutant 18R2-2]	No different than WT, not selected for											
18R2-23: human P2Y2 receptor mutant V250A [Mutant 18R2-23]	No different than WT, not selected for											
Nc1ncnc2c1ncn2[C@@H]1O[C@H](COP(=O)(O)OP(=O)(O)OP(=O)(O)O)[C@@H](O)[C@H]1O [eATP, adenosine triphosphate, reference compound]		1860										
O=c1ccn([C@@H]2O[C@H](COP(=O)(O)OP(=O)(O)OP(=O)(O)O)[C@@H](O)[C@H]2O)c(=O)[nH]1 [eUTP, uridine triphosphate, reference compound]		123										
H1-2: human P2Y2 receptor mutant F58L [Mutant H1-2]			4-4,966 μM	122	9	0.05 to 22	101	6				
H1-3: human P2Y2 receptor mutant F58I [Mutant H1-3]			4-3,945 μM	152	10	0.4 to 550	122	8				
H1-4: human P2Y2 receptor mutant F58L S359P [Mutant H1-4]			5-3,882 μM	110	9	0.2 to 61	96	7				
H7-1: human P2Y2 receptor mutant K240N F307S [Mutant H7-1]				181	3	0.02 to 3.1	199	3	0.3 to 18	increased responsiveness and signaling in the absence of agonist (constitutive activity)		
TM-2: human P2Y2 receptor mutant L59I C119S			3-2,243 μM	165	9	0.9 to 169	143	8				
TM-3: human P2Y2 receptor mutant N116S				110	5	0.04 to 63	86	5	0.9 to 284	increased responsiveness and signaling in the absence of agonist (constitutive activity)		
TM-4: human P2Y2 receptor mutant L162I Q165H			0.5-8,950^ μM	137	10	0.07 to 31	69	7				
WT: wild-type human P2Y2 receptor (NP_002555.4), yeast codon-optimized [reference compound]			113-25,600 μM	100	8		98	9			4-1,374 μM	weak response
H7-2: human P2Y2 receptor mutant A76T A229V F307S (protein, UniProt P41231 1-377, looked up, variant A76T A229V F307S) P2Y purinoceptor 2: MAADLGPWNDTINGTWDGDELGYRCRFNEDFKYVLLPVSYGVVCVPGLCLNAVALYIFLCRLKTWNASTTYMFHLTVSDALYAASLPLLVYYYARGDHWPFSTVLCKLVRFLFYTNLYCSILFLTCISVHRCLGVLRPLRSLRWGRARYARRVAGAVWVLVLACQAPVLYFVTTSARGGRVTCHDTSAPELFSRFVAYSSVMLGLLFAVPFAVILVCYVLMARRLLKPVYGTSGGLPRAKRKSVRTIAVVLAVFALCFLPFHVTRTLYYSFRSLDLSCHTLNAINMAYKVTRPLASANSCLDPVLYSLAGQRLVRFARDAKPPTGPSPATPARRRLGLRRSDRTDMQRIEDVLGSSEDSRRTESTPAGSENTKDIRL				90	2	0.01 to 6	84	3	0.3 to 23	increased responsiveness and signaling in the absence of agonist (constitutive activity)		
H1-1: human P2Y2 receptor mutant F58C C60Y G310A (protein, UniProt P41231 1-377, looked up, variant F58C C60Y G310A) P2Y purinoceptor 2: MAADLGPWNDTINGTWDGDELGYRCRFNEDFKYVLLPVSYGVVCVPGLCLNAVALYICLYRLKTWNASTTYMFHLAVSDALYAASLPLLVYYYARGDHWPFSTVLCKLVRFLFYTNLYCSILFLTCISVHRCLGVLRPLRSLRWGRARYARRVAGAVWVLVLACQAPVLYFVTTSARGGRVTCHDTSAPELFSRFVAYSSVMLGLLFAVPFAVILVCYVLMARRLLKPAYGTSGGLPRAKRKSVRTIAVVLAVFALCFLPFHVTRTLYYSFRSLDLSCHTLNAINMAYKVTRPLASANSCLDPVLYFLAAQRLVRFARDAKPPTGPSPATPARRRLGLRRSDRTDMQRIEDVLGSSEDSRRTESTPAGSENTKDIRL				149	5	0.05 to 12	128	4	0.5 to 184			
18R2-18: human P2Y2 receptor mutant W16R V90A A295V (protein, UniProt P41231 1-377, looked up, variant W16R V90A A295V) P2Y purinoceptor 2: MAADLGPWNDTINGTRDGDELGYRCRFNEDFKYVLLPVSYGVVCVPGLCLNAVALYIFLCRLKTWNASTTYMFHLAVSDALYAASLPLLAYYYARGDHWPFSTVLCKLVRFLFYTNLYCSILFLTCISVHRCLGVLRPLRSLRWGRARYARRVAGAVWVLVLACQAPVLYFVTTSARGGRVTCHDTSAPELFSRFVAYSSVMLGLLFAVPFAVILVCYVLMARRLLKPAYGTSGGLPRAKRKSVRTIAVVLAVFALCFLPFHVTRTLYYSFRSLDLSCHTLNAINMAYKVTRPLVSANSCLDPVLYFLAGQRLVRFARDAKPPTGPSPATPARRRLGLRRSDRTDMQRIEDVLGSSEDSRRTESTPAGSENTKDIRL	inconsistent results											
